Results as given in patent EP0034471A1, “Piperidinoquinazolines and a process for the preparation thereof” (ORION-YHTYMÄ OY, priority 1980, dated 1981).
Counter-ions that a name gives are not always drawn.

Experiments:
[1] = test system: male Wistar rats; experiment: Blood pressure lowering after intravenous administration in urethane-anaesthetised rats (mean arterial pressure, femoral artery); assay type: in vivo; conditions: maximal decrease of the blood pressure
Method: The effect of the compounds when administered intravenously was studied with male Wistar rats, 240-290 g,which were anaesthetised with urethane (1.5 g/kg intraperitoneally). A heating pad which is controlled by a thermostate connected to the colonic thermistor probe was placed underneath the rats to keep the body temperature at' 38°C. The trachea was cannulated with a polyethylene tube and the rats were allowed to breathe spontaneously. A femoral vein was cannulated for intravenous injections of drugs. […] The pressure . signals were amplified with a pressure conditioner (HP […]). The mean arterial pressure was recorded on paper with a . chart recorder. […] A dose of 0.1 μmol/kg was injected intravenously and the maximal decrease of the blood pressure (mmHg) was measured.

[2] = test system: Spontaneously hypertensive rats of the Okamoto-Aoki strain; experiment: Blood pressure lowering after oral administration in conscious spontaneously hypertensive rats (tail cuff, systolic pressure); assay type: in vivo; conditions: for The decrease of the blood pressure (mmHg) induced by the dose of 0.5 µmol/rat p.o. 1h: 1 hour after administration; for The decrease of the blood pressure (mmHg) induced by the dose of 0.5 µmol/rat p.o. 2h: 2 hours after administration; for The decrease of the blood pressure (mmHg) induced by the dose of 0.5 µmol/rat p.o. 5h: 5 hours after administration

SMILES	The decrease of the blood pressure (mmHg) induced by the dose of 0.1 µmol/kg i.v. [1] [mmHg]	The decrease of the blood pressure (mmHg) induced by the dose of 0.5 µmol/rat p.o. 1h [2] [mmHg]	The decrease of the blood pressure (mmHg) induced by the dose of 0.5 µmol/rat p.o. 2h [2] [mmHg]	The decrease of the blood pressure (mmHg) induced by the dose of 0.5 µmol/rat p.o. 5h [2] [mmHg]
COc1cc2nc(N3CCC(C(N)=O)CC3)nc(N)c2cc1OC.Cl [amino, 2-(4-carbamoylpiperidino)-4-amino-6,7-dimethoxyquinazoline hydrochloride]	27	20	22	20
CCN(CC)C(=O)C1CCN(c2nc(N)c3cc(OC)c(OC)cc3n2)CC1 [A(R = diethylamino), 2-(4-diethylaminocarbonylpiperidino) 4- .amino-6,7-dimethoxyquinazoline, reference compound]	37	24	16	10
COc1cc2nc(N3CCC(C(=O)NC(C)(C)C)CC3)nc(N)c2cc1OC.Cl [t-butylamino, 2-(4-tert-butylcarbamoylpiperidino)-4-amino-6,7-dimethoxyquinazoline hydrochloride]	28	15	25	28
COc1cc2nc(N3CCC(C(=O)N4CCCCC4C)CC3)nc(N)c2cc1OC.Cl (stereo not shown) [2-methylpiperidino, 2-(4-(2-methylpiperidino)carbonylpiperidino)-4-amino-6,7-dimethoxyquinazoline hydrochloride]	31	15	25	28
COc1cc2nc(N3CCN(C(=O)c4ccco4)CC3)nc(N)c2cc1OC [prazosin, 2-(4-(2-furoyl)-piperazin-l-yl)-4-amino-6,7-dimethoxyquinazoline, reference compound]	36	26	31	24
COc1cc2nc(N3CCC(C(=O)N4CCCCCCC4)CC3)nc(N)c2cc1OC [1-azacyclooctyl, 2-(4-(azacyclooct-1-yl-carbonyl)piperidino-4-amino-6,7-dimethoxyquinazoline hydrochloride]	23	18	23	29
COc1cc2nc(N3CCC(C(=O)N4CCOCC4)CC3)nc(N)c2cc1OC [B(R = morpholino), 2-(4-morpholinocarbonylpiperidino)-4-amino-6,7-dimethoxyquinazoline, reference compound]	30	7	5	-2
COc1cc2nc(N3CCC(C(=O)N4CCCCC4)CC3)nc(N)c2cc1OC [piperidino, 2-(4-piperidinocarbonylpiperidino)-4-amino-6,7-dimethoxyquinazoline]	32	25	22	17
COc1cc2nc(N3CCC(C(=O)OCC(C)(C)C)CC3)nc(N)c2cc1OC.Cl [neopentyloxy, 2-(4-neopentyloxycarbonylpiperidino)-4-amino-6,7-dimethoxyquinazoline hydrochloride]	44	22	21	21
COc1cc2nc(N3CCC(C(=O)N4CCCCCC4)CC3)nc(N)c2cc1OC [1-azacycloheptyl, 2-(4-(azacyclohept-1-yl-carbonyl)piperi-dino)-4-amino-6,7-dimethoxyquinazoline hydrochloride]	47	23	27	25
